Here are results for 1 compound from article PMC5190008, “BO-1055, a novel DNA cross-linking agent with remarkable low myelotoxicity shows potent activity in sarcoma models” (Oncotarget, 2016).

SMILES strings stand for the structures.

Series [1] deals with caspase 3/7 in A673 cells. In words: Caspase 3/7 activity (ApoTox-Glo Triplex Assay). The following applies: A673, 48h and 72h, concentration dependent. The series is classed as cell-based, human. As to the method: A673 cells were plated at a density of 5 × 10^3 cells/well in 96 well plates. At 48h and 72h post drug exposure, 100μl of Caspase-Glo 3/7 reagent provided in the ApoTox -Glo Triplex Assay (Promega, USA) was added as per the protocol and the luminescence, which indicates caspase activation, was measured using the Synergy H1 hybrid microplate reader.

Series [2] concerns Human MSC. Nature of the series: Comet assay. The following applies: 3h. It counts as cell-based. As to the method:
We used comet assay, which includes single cell gel electrophoresis to assess DNA breaks when exposed to radiation or DNA damaging agents. […] Olive moment (micrometers), a product of tail DNA% and the distance between the centroids of head and tail, is an accurate parameter of DNA damage. […] Gamma-H2AX (γH2AX) phosphorylation is the initial step in DNA damage response following double stranded breaks and is responsible for recruiting DNA repair proteins.
Comet assay was performed according to the protocol described earlier. Cells were treated with BO-1055 at 2μM concentration for 3h, or immediately after exposure to 8Gy radiation after which they were isolated and mixed with 1% low melting point agarose in a tube. The cells in agarose were transferred to slides coated with normal melting point agarose. The agarose-immobilized cells were lysed in alkaline solution and the agarose trapped DNA was electrophoresed. DNA was stained with ethidium bromide and image acquisition was done immediately. DNA damage quantification was performed using OpenComet v1.3, an open-source software plugin in Image J 1.47v software (NIH, USA) for automated analysis. Olive moment, which is the product of tail DNA% and the distance between the intensity-weighted centroids of head and tail was taken from the output for analysis.

Series [3] has as its system patient derived Ewing sarcoma xenografts. In words: Combination in vivo study in Ewing sarcoma PDX. Further details: species or system NSG mice.
Series [4] deals with Ewing sarcoma cell lines. In words: Alamar Blue cell proliferation assay. It counts as cell-based, human. As to the method:
(§1) AlamarBlue® assay (Invitrogen, Carlsbad, CA, USA) was performed to evaluate anti-proliferative activity of the drugs in cell lines and primary cells. Cells were plated in 96-well plates ([…] in 200 μL of medium). After 12 h, one of the previously mentioned drugs was added to each well at the specified concentration and incubated for 72 h. At the end of the incubation period, 20 μL of stock solution (0.312 mg/mL) of the Alamar Blue was added to each well. The absorbance was measured using the Synergy H1 hybrid multi-mode microplate reader (BioTek, USA). The drug effect was quantified as the percentage of control absorbance at 540 nm and 585 nm. Optical density was determined for 3 replicates per treatment condition and cell proliferation in drug-treated cells was normalized to their respective controls. All experiments were performed in triplicate.
(§2) Data are presented as mean±S.E.M. of at least three independent experiments done in triplicate. […] Combination index (CI) values, as calculated by CompuSyn software (Chou and Martin, 2007), were used to evaluate the interaction between BO-1055 and a second drug (Topotecan, SN38, Doxorubicin or PU-H71). The Chou-Talalay method was used to quantify the synergism (CI < 1), additive effect (CI = 1) and antagonism (CI > 1) of various drug combinations.
A general note: Resazurin is reduced to fluorescent resorufin, in cell work by metabolically active cells.

The test system of series [5] is rhabdomyosarcoma cell lines. In words: Alamar Blue cell proliferation assay. It counts as cell-based, human. The method, then:
as §1, §2

Series [6] relates to γH2AX in A673 cells. In words: γ-H2AX expression by flow cytometry. The series is classed as cell-based, human. The following applies: A673 compared to hMSC and cord blood CD34+ cells, 3h. The method, then: Staining of γ-H2AX antigen was carried out following the manufacturer's protocol. Briefly, human sarcoma cells and human mesenchymal stem cells were treated with various concentrations of BO-1055 at 37°C. At 3h, the cultures were washed with 1 ml of cold PBS three times, detached with 0.05% trypsin, and cells were pelleted. The pelleted cells were resuspended with 0.2 ml Cytofix/Cytoperm solution (BD Bioscience), incubated at 4°C for 20 minutes, and then washed with 1 ml cold Perm/Wash solution (BD Bioscience) three times. After anti-human γ-H2AX antibody (BD Bioscience) staining, the specimens were subjected to flow cytometric analysis via a Calibur flow instrument (BD Bioscience).
For orientation: Flow cytometry measures light scatter and fluorescence of single cells or particles in a stream.

Series [7] deals with benign cells (mesenchymal stromal cells, fetal lung fibroblasts and myofibroblasts, hematopoietic progenitor cells, endothelial cells, MS-5). In words: Alamar blue cytotoxicity in benign cells. The series is classed as cell-based, human, murine. To be noted: up to 10 μM, most of the tested cells. As to the method: We also examined the effect of BO-1055 in inhibiting the cell growth of different types of benign cells including human mesenchymal stromal cells, fetal lung fibroblasts and myofibroblasts, hematopoietic progenitor cells, bone marrow derived endothelial cells and human umbilical vein endothelial cells and murine mesenchymal stromal cells, MS-5 (murine).
as §1

Series [8] concerns A673 spheroids. Nature of the series: Spheroid assay in 3D culture (methylcellulose). It counts as cell-based, human. The method, then: A673 cells were seeded on flat bottom non attachment 24 well plates (1000 cells/well) in triplicate using 1.2 % methylcellulose (Dow Chemical, Waterloo, NY) mixed with 20% FCS and specified concentrations of BO-1055 or 4HC as shown in Figure 1D. Samples were incubated at 37°C / 5 % CO2 and colonies were scored 14 days after plating.

Series [9] deals with CCRF-CEM/Taxol cells. On the set-up: method as in PMID 21106377. To be noted: CCRF-CEM/Taxol ref 6; cited from earlier work.
For series [10], the system named is A673 cells. In words: Drug combination study (Alamar Blue, Chou-Talalay combination index). It counts as cell-based, human. As to the method: The AlamarBlue® cell proliferation assay was used to test the effect of a single drug and a combination of drugs. A673 cells (5 × 10^3 cells/well) were added to 96 well plates in triplicate. After 12h incubation, BO-1055 and a second drug (Topotecan, SN38, Doxorubicin or PU-H71) were added simultaneously in a lattice format in varying concentrations. Plates were read after 72h drug exposure. Combination indices were derived as described below to identify the interaction in two-drug combinations.
Data are presented as mean±S.E.M. of at least three independent experiments done in triplicate. The comparison of means between treated and control mice was performed using two-tailed T-test or ANOVA (for more than two groups) as implemented in GraphPad Prism (version 4; GraphPad Software). Graphpad Prism software was used to plot concentration-effect curves and determine the drug concentration that inhibited the growth of cell lines by 50% compared to the control (IC50). A p-value of 0.05 or less was considered significant. Combination index (CI) values, as calculated by CompuSyn software (Chou and Martin, 2007), were used to evaluate the interaction between BO-1055 and a second drug (Topotecan, SN38, Doxorubicin or PU-H71). The Chou-Talalay method was used to quantify the synergism (CI < 1), additive effect (CI = 1) and antagonism (CI > 1) of various drug combinations.

Turning to `CN(C)CCNC(=O)c1cccc(NC(=O)Nc2ccc(N(CCCl)CCCl)cc2)c1` [BO-1055], the “caspase 3/7 activity” value in series [1] is given as “Activation”. The “olive moment relative to radiation (XRT, 8Gy)” value in [2] is recorded as “relatively less”. In [3] (BO-1055 IV plus Irinotecan IP, 10mg/kg/dose qd x 5 or 5mg/kg/dose qd x 5, day 14), the “tumor regression in combination group compared to single drug groups” value is “significantly greater”. The “weight loss in combination group compared to single drug groups” value in series [3] (BO-1055 plus Irinotecan) was “No significant weight loss”. Further, the IC50 result in series [4] and in [5] was “submicromolar” throughout. The γH2AX level result in series [6] was “significantly elevated”. Besides, in series [7], the “cytotoxicity against benign cells” value is on record as “minimal to no cytotoxicity”. Also, in [8] (A673 spheroids in methylcellulose, scored 14 days after plating), the “concentration giving complete inhibition of spheroids” value came out at 0.5 µM. Further, the “fold lower concentration inhibiting A673 spheroids compared to 4-HC” value in series [8] (BO-1055 vs 4-HC) turned out to be 10 fold. Moreover, the “resistance of CCRF-CEM/Taxol cells” value in [9] was 9.4 fold. Moreover, the “drug interaction (combination index)” value in series [10] (BO-1055 combined with PU-H71, A673, 72h) is listed as “synergistic”; in [10] (BO-1055 combined with SN-38, A673, 72h), “highly synergistic”; in [10] (BO-1055 combined with doxorubicin, A673, 72h), “synergistic”; in [10] (BO-1055 combined with topotecan, A673, 72h) it was “synergistic”.
